Reference: patent publication US10759785B2, “Compounds” (ENTERPRISE THERAPEUTICS LIMITED, priority 2016, dated 2020)
Counter-ions that a name gives are not always drawn.

What follows are compounds tested against T1, ENaC (Homo sapiens, UniProt P37088+P51168+P51170) (assay: Short circuit current assay to determine ENaC blocker potency in human bronchial epithelial cells). Conditions: 50% inhibition of total amiloride-sensitive ISC, HBECs, apical addition; read-out: Averages. ENaC Ic50 μm Avg.
T1 construct: host or cells: primary human bronchial epithelial cells (HBECs) differentiated at an air-liquid interface
T1 sequence (P37088 1-669): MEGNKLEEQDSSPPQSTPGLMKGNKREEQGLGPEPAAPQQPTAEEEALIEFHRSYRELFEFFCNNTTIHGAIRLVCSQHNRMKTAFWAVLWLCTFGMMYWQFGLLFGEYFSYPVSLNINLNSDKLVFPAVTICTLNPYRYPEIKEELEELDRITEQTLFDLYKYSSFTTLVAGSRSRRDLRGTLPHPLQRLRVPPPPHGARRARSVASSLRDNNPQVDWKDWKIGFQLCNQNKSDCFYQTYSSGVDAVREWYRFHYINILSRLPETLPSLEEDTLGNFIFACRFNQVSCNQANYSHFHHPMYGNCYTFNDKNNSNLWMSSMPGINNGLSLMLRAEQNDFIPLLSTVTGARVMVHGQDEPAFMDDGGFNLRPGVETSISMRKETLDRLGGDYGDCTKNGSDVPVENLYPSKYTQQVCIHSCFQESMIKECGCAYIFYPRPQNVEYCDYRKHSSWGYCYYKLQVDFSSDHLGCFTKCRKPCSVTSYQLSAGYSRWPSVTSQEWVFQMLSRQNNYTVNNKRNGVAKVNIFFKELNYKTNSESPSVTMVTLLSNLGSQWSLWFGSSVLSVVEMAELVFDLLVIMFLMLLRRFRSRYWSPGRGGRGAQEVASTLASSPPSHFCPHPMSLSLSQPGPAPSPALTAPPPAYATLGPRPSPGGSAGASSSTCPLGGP
T1 sequence (P51168 1-640): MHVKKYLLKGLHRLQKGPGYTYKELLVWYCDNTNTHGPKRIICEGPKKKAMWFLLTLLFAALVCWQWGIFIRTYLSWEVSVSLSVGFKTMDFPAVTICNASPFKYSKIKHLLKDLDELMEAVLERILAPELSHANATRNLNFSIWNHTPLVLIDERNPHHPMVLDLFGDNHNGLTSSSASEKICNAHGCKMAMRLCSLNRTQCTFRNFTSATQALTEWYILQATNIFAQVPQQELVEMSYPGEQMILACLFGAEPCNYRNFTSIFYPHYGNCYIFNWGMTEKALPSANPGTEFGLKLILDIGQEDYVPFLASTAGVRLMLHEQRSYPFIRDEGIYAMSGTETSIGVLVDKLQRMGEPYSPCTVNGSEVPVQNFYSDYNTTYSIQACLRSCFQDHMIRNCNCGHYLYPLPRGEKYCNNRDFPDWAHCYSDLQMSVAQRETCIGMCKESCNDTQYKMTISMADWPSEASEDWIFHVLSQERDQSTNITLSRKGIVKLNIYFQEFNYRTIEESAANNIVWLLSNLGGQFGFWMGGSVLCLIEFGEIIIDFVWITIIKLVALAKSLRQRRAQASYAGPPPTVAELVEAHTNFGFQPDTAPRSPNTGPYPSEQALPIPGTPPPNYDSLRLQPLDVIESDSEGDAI
T1 sequence (P51170 1-649): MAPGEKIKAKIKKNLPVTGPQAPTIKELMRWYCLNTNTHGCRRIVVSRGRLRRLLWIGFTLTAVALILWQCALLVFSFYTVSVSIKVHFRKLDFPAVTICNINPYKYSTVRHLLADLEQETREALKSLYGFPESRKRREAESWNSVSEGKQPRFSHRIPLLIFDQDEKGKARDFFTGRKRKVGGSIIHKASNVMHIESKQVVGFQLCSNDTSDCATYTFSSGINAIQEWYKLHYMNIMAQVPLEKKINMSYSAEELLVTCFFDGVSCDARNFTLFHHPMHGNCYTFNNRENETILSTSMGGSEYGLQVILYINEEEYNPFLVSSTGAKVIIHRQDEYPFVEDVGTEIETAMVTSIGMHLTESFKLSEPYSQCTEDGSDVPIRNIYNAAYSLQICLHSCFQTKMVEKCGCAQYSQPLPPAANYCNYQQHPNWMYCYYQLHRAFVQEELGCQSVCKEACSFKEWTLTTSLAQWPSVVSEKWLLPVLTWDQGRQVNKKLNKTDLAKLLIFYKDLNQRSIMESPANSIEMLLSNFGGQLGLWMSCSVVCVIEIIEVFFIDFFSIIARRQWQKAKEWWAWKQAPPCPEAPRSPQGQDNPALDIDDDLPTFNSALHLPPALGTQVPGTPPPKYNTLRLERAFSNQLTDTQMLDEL
Format: cell-based
Protocol: Example 27—Short Circuit Current Assay to Determine ENaC Blocker Potency in Human Bronchial Epithelial Cells
Human bronchial epithelial cells (HBECs) (Lonza, UK) were cultured using a modification of the method described by Coote et al, (2008). Cells were seeded into plastic T-75 flasks and grown in Bronchial Epithelial Cell Growth Medium (BEGM) (Lonza, UK) supplemented with bovine pituitary extract (52 ng/mL), hydrocortisone (0.5 μg/mL), human recombinant Epidermal Growth Factor (0.5 ng/mL), epinephrine (0.5 ng/mL), transferrin (10 ng/mL), insulin (5 ng/mL), retinoic acid (0.1 ng/mL), triiodothyronine (6.5 ng/mL), gentamycin (50 μg/mL) and amphotericin-B (50 ng/mL). Medium was changed every 48 hours until cells were 90% confluent. Cells were then passaged and seeded (8.25×10^5 cells/insert) onto polycarbonate Snapwell™ inserts (Costar, UK) in differentiation media containing 50% DMEM in BGEM with the same supplements as above but without triiodothyronine and a final retinoic acid concentration of 50 nM (all-trans retinoic acid; Sigma-Aldrich, UK). Cells were maintained submerged for the first 7 days in culture after which time they were exposed to an apical air interface for the remainder of the culture period. From the first day of establishment of an ALI, HBEC were fed with a DMEM:HAMS F-12 (1:1) media containing 2% Ultroser G (Pall BioSepra, France) with gentamycin (50 μg/mL) and amphotericin B (50 ng/mL). Cells were used for short-circuit current assay between days 14-21 after the establishment of the ALI. At all stages of culture, cells were maintained at 37′C in 5% CO2 in an air incubator.
Short-Circuit Current (ISC) Measurements
Snapwell inserts were mounted in Costar Vertical Diffusion Chambers (Costar, UK) and were bathed with continuously gassed Ringer solution (5% CO2 in O2; pH 7.4) maintained at 37° C. containing (in mM): 120 NaCl, 25 NaHCO3, 3.3 KH2PO4, 0.8 K2HPO4, 1.2 CaCl2, 1.2 MgCl2 and 10 glucose. The solution osmolarity was always between 280-300 mOsm/kg H2O for all physiological salt solutions used. Cells were voltage clamped to 0 mV (model EVC4000, WPI). Transepithelial resistance (RT) was measured by applying a 2 mV pulse at 30 s intervals and calculating RT by Ohm's law. Data were recorded using a PowerLab workstation (ADInstruments, UK).
ENaC blocker compounds were added to the apical chamber from a 1000-fold stock solution (prepared in DMSO) to achieve a cumulative concentration response in terms of the inhibition of the basal ISC. At the completion of the concentration response, a supra-maximal concentration of amiloride (10 μM) was added. The concentration of test compound that induced a 50% inhibition of the total amiloride-sensitive ISC (IC50) was calculated using GraphPad Prism v6.05.
`CCn1c(CNC(=O)c2nc(Br)cnc2N)[n+](CC)c2ccc(-c3cnn(C4CCNCC4)c3)cc21.Cl.[I-]` [Example 21, 2-{[(3-amino-6-bromopyrazin-2-yl)formamido]methyl}-1,3-diethyl-6-[1-(piperidin-4-yl)-1H-pyrazol-4-yl]-1H-1,3-benzodiazol-3-ium hydrochloride iodide] was tested, and the IC50 was 1 nM.
In the case of `CCn1c(CNC(=O)c2nc(Br)cnc2N)[n+](CC)c2ccc(-c3cnn(C4CCN(C(=N)N)CC4)c3)cc21.O=CO.O=C[O-]` [Example 22, 2-{[(3-amino-6-bromopyrazin-2-yl)formamido]methyl}-6-[1-(1-carbamimidoylpiperidin-4-yl)-1H-pyrazol-4-yl]-1,3-diethyl-1H-1,3-benzodiazol-3-ium formic acid formate], the IC50 is reported as 2 nM.
Compound `CCn1c(CNC(=O)c2nc(Br)cnc2N)[n+](CC)c2ccc(-c3cnn(C4CCN(C[C@H](O)[C@@H](O)[C@H](O)[C@H](O)CO)CC4)c3)cc21.O=CO.[Cl-]` [Example 23, 2-{[(3-amino-6-bromopyrazin-2-yl)formamido]methyl}-1,3-diethyl-6-(1-{1-[(2S,3R,4R,5R)-2,3,4,5,6-pentahydroxyhexyl]piperidin-4-yl}-1H-pyrazol-4-yl)-1H-1,3-benzodiazol-3-ium formic acid chloride] has an IC50 of 2 nM.
In the case of `CCn1c(CNC(=O)c2nc(Br)cnc2N)[n+](CC)c2ccc(OCCNC(=O)OC(C)(C)C)cc21.O=C[O-]` [Example 24, 2-{[(3-amino-6-bromopyrazin-2-yl)formamido]methyl}-6-(2-{[(tert-butoxy)carbonyl]amino}ethoxy)-1,3-diethyl-1H-1,3-benzodiazol-3-ium formate], the IC50 is reported as 2 nM.
`CCn1c(CNC(=O)c2nc(Br)cnc2N)[n+](CC)c2ccc(OCCN)cc21.Cl.[Cl-]` [Example 25, 2-{[(3-Amino-6-bromopyrazin-2-yl)formamido]methyl}-6-(2-aminoethoxy)-1,3-diethyl-1H-1,3-benzodiazol-3-ium hydrochloride chloride] was tested, and the IC50 was 2 nM.
Compound `CCn1c(CNC(=O)c2nc(C#N)cnc2N)[n+](CC)c2ccc(OC)cc21` [Example 26, 2-{[(3-amino-6-cyanopyrazin-2-yl)formamido]methyl}-1,3-diethyl-6-methoxy-1H-1,3-benzodiazol-3-ium formate] has an IC50 of 8 nM.
